Data from article PMC8196871, “Molecular Imaging and Preclinical Studies of Radiolabeled Long-Term RGD Peptides in U-87 MG Tumor-Bearing Mice” (International Journal of Molecular Sciences, 2021).
Values belong to the compound of their own block, whether it stands above or below them.

Legend:
[1] = tested on: tumor; parameters: method as in PMID 25621196; settings: cited from earlier work
[2] = tested on: U-87 MG cells; assay type: binding, human; settings: 4 h
Protocol: As the concentration of unlabeled DOTA-EB-cRGDfK or DOTA-cRGDfK increased, the binding ratio of ^111In-DOTA-EB-cRGDfK decreased, indicating the presence of specific binding affinity (Figure 2C).
U-87 MG cells were seeded into 24-well plates at a density of 1 × 10^5 cells per well and incubated overnight. Different concentrations ranging from 0.01 nM to 5000 nM of DOTA-EB-cRGDfK or DOTA-cRGDfK were added to the wells. U-87 MG cells were then incubated with 10 nM ^111In-DOTA-EB-cRGDfK for 4 h at 37 °C. Cells were washed once with 0.5 mL PBS and were removed from each well by 0.25% trypsin-EDTA (Gibco, Gaithersburg, MD, USA). The cell suspensions were collected and measured by using a PerkinElmer 2480 Automatic Gamma Counter (PerkinElmer, Waltham, MA, USA). Binding results were expressed as a percent of total counts, and IC50 values were calculated using SigmaPlot 12.5 (Systat Software, Inc., San Jose, CA, USA).

[3] = NanoSPECT/CT imaging with image quantification; assay type: in vivo; settings: female, NOD/SCID, mouse, tumor, iv, 2.5 ug, total radioactivity; 0.5 h after tail-vein injection (about 18.5 MBq, 2.5 μg); U-87 MG xenografts in mice; nanoSPECT/CT ROI
Protocol: Figure 3 presented nanoSPECT/CT images of U-87 MG xenografts in mice administered with different radiolabeled peptides. […] Comparing with ^111In-DOTA-EB-cRGDfK, the highest tumor uptake of ^111In-DOTA-cRGDfK was 2.0 ± 0.5% ID/g at 0.5 h. […] The ratios of tumor to muscle and tumor to liver were 1.8 ± 0.7 and 0.5 ± 0.1 at 0.5 h, respectively. The highest tumor uptake of ^111In-DOTA-EB was 10.3 ± 4.4% ID/g at 24 h, and it slightly dropped to 9.97 ± 4.37% ID/g at 72 h.
The human glioblastoma cell line, U-87 MG (stock number: BCRC 60360), was obtained from Bioresource Collection and Research Center. Cells were grown in Minimum Essential Medium (MEM; Gibco, Grand Island, NY, USA) supplemented with 10% (v/v) fetal bovine serum (FBS; Gibco, Gaithersburg, MD, USA) and 1% antibiotic antimycotic solution (Sigma-Aldrich, St. Louis, MO, USA) at 37 °C under 5% CO2 incubation. Female non-obese diabetic, severe combined immunodeficiency (NOD/SCID) mice were obtained from BioLASCO Taiwan Co., Ltd. The 6-week-old mice were housed in a 12 h light cycle at 22 °C, with food and water provided ad libitum. […]
The procedure for nanoSPECT/CT imaging has been previously described. […] The image quantification of the region of interest (ROI) was acquired by PMOD v. […]

[4] = mouse, in vivo, iv
Protocol: Blood samples (10 μL) were collected by heart puncture under 2% isoflurane anesthesia at 0.083, 0.5, 2, 4, 24, 48, 72, 96, and 168 h. The radioactivity of blood samples was measured by PerkinElmer 2480 gamma counter and expressed as the percentage injected dose per gram (% ID/g). Data was used to determine the pharmacokinetic parameters by noncompartmental analysis (NCA) and the analysis software was WinNonlin 7.0 (Pharsight Corporation, Mountain View, CA, USA). Parameters, including terminal half-life (T1/2λz), maximum concentration (Cmax), total body clearance (Cl), area under curve (AUC), and mean residence time (MRT) were determined. Pharmacokinetic parameters associated with the terminal phase were calculated using the best-fit method to estimate the terminal half-life.

Compound: N[C@@H](Cc1ccc(B(O)O)cc1[18F])C(=O)O [^18F-BPA]
Tumor uptake [1]: 1.44 ± 0.44 % ID/g

IC50 [2]: 35.2 nM
Compound: N=C(N)NCCC[C@@H]1NC(=O)[C@H](CCCCNC(=O)CN2CCN(CC(=O)O)CCN(CC(=O)O)CCN(CC(=O)O)CC2)NC(=O)[C@@H](Cc2ccccc2)NC(=O)[C@H](CC(=O)O)NC(=O)CNC1=O [DOTA-cRGDfK]

tissue uptake at 0.5 h [3]: 2 ± 0.5 %ID/g
Cl (total body clearance) [4]: 12.9 mL/h
Maximum concentration (Cmax) in blood [4]: 3.74 % ID/g
T1/2λz (terminal half-life) [4]: 17.2 h
Compound: N=C(N)NCCC[C@@H]1NC(=O)[C@H](CCCCNC(=O)CN2CCN(CC(=O)O)CCN(CC(=O)O)CCN(CC(=O)O)CC2)NC(=O)[C@@H](Cc2ccccc2)NC(=O)[C@H](CC(=O)O)NC(=O)CNC1=O [^111In-DOTA-cRGDfK, metal not drawn]
